Assay results reported in ChEMBL document CHEMBL1649335, “Discovery of {1-[4-(2-{hexahydropyrrolo[3,4-c]pyrrol-2(1H)-yl}-1H-benzimidazol-1-yl)piperidin-1-yl]cyclooctyl}methanol, systemically potent novel non-peptide agonist of nociceptin/orphanin FQ receptor as analgesic for the treatment of neuropathic pain: design, synthesis, and structure-activity …” (Bioorg Med Chem, 2010).
Activity calls are given as the source filed them.

Assays:
[1] = Drug level Sprague-Dawley rat brain at 10 mg/kg, sc after […]; type: ADME, organism-based; parameters: dose 10 mg/kg, route subcutaneous; details: read-out: Drug uptake
Rattus norvegicus [2] = experiment: Antiallodynic activity against von Frey hair mechanically stimulated neuropathic pain in sc dosed Sprague-Dawley rat assessed as assessed as minimum effective dose to increase of response threshold after 2 hrs; type: functional
[3] = target: Small conductance calcium-activated potassium channel protein 1 (Rattus norvegicus) (UniProt P70606); experiment: Inhibition of rat SKCa channel at 1 uM relative to control
monoamine oxidase B = monoamine oxidase B (Homo sapiens, UniProt P27338); experiment: Inhibition of human monoamine oxidase B at 1 uM relative to control
Chain of monoamine oxidase B (P27338 whole entry): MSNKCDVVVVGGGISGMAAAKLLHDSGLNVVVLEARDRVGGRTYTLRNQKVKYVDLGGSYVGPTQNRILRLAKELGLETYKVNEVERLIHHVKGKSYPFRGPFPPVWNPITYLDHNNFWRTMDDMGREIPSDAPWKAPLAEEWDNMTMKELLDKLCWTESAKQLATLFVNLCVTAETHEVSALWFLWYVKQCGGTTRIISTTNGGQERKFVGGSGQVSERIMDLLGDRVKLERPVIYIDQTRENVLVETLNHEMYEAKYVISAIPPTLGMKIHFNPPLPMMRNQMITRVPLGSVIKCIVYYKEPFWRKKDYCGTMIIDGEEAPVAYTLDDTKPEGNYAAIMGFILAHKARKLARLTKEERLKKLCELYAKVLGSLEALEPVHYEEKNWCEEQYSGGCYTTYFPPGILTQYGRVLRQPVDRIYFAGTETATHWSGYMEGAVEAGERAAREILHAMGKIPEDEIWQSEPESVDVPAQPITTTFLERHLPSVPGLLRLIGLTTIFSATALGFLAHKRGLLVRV

Rattus norvegicus [4] = species: Rattus norvegicus; experiment: Inhibition of rat AMPA receptor at 1 uM relative to control
[5] = target: Type-1 angiotensin II receptor (Homo sapiens) (UniProt P30556); experiment: Inhibition of human angiotensin 2 AT1 receptor at 1 uM relative to control
Chain of Type-1 angiotensin II receptor (Homo sapiens) (P30556 whole entry): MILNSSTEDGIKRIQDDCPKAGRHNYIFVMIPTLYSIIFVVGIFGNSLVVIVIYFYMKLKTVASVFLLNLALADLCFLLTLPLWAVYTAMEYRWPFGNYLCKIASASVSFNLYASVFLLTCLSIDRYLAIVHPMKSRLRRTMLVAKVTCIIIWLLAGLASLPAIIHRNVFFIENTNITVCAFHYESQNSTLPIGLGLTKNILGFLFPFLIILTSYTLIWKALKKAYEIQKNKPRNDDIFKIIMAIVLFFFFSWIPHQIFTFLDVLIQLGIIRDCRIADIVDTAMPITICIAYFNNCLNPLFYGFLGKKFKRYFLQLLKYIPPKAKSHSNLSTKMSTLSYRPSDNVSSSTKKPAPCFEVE

[6] = Drug level Sprague-Dawley rat spinal cord at 10 mg/kg, sc after […]; type: ADME, organism-based; parameters: dose 10 mg/kg, route subcutaneous; details: read-out: Drug uptake
[7] = target: Acetylcholinesterase (Homo sapiens) (UniProt P22303); experiment: Inhibition of human acetylcholine esterase at 1 uM relative to control
Chain of Acetylcholinesterase (Homo sapiens) (P22303 whole entry): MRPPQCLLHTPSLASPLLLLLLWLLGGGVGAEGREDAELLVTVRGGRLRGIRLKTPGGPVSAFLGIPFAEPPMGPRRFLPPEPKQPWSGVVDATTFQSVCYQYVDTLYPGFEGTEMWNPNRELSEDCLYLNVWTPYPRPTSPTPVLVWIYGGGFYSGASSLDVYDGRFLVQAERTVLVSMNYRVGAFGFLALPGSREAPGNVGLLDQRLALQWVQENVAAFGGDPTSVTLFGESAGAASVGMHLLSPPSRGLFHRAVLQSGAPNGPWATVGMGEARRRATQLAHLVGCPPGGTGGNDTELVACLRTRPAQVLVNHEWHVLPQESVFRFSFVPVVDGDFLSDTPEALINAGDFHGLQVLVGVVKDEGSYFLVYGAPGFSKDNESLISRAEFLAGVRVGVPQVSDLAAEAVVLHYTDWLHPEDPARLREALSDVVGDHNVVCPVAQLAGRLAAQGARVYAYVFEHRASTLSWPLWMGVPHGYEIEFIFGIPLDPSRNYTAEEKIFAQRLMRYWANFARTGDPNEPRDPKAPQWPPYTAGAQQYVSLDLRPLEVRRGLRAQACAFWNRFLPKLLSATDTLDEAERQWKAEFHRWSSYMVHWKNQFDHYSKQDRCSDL

[8] = target: Muscarinic acetylcholine receptor M3 (Homo sapiens) (UniProt P20309); experiment: Inhibition of human muscarinic M3 receptor at 1 uM relative to control
Mu-type opioid receptor = Mu-type opioid receptor (Homo sapiens, UniProt P35372)
Chain of Mu-type opioid receptor (P35372 whole entry): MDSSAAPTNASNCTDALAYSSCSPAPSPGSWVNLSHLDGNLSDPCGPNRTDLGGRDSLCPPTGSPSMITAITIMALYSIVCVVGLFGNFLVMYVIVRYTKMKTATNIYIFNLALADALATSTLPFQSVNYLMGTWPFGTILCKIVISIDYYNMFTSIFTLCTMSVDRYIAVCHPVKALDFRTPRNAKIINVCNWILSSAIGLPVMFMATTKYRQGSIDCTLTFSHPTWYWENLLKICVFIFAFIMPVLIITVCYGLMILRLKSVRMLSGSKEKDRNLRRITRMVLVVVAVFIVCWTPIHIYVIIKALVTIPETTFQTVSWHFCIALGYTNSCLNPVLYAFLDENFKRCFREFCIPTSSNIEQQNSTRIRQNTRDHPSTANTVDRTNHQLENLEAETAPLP

Rattus norvegicus [9] = experiment: Antiallodynic activity against von Frey hair mechanically stimulated neuropathic pain in Sprague-Dawley rat assessed as effect on allodynia in contralateral paw at 5.5 to 170 nmol/site, icv after 1 hr; type: functional, organism-based
[10] = target: Muscarinic acetylcholine receptor M2 (Homo sapiens) (UniProt P08172); experiment: Inhibition of human muscarinic M2 receptor at 1 uM relative to control
Rattus norvegicus [11] = species: Rattus norvegicus; experiment: Inhibition of rat GABA transporter at 1 uM relative to control
Rattus norvegicus [12] = experiment: Antiallodynic activity against von Frey hair mechanically stimulated neuropathic pain in sc dosed Sprague-Dawley rat assessed as increase of response threshold after 1 hr; type: functional
[13] = target: Histamine H3 receptor (Rattus norvegicus) (UniProt Q9QYN8); experiment: Inhibition of rat histamine H3 receptor at 1 uM relative to control
Chain of Histamine H3 receptor (Rattus norvegicus) (Q9QYN8 whole entry): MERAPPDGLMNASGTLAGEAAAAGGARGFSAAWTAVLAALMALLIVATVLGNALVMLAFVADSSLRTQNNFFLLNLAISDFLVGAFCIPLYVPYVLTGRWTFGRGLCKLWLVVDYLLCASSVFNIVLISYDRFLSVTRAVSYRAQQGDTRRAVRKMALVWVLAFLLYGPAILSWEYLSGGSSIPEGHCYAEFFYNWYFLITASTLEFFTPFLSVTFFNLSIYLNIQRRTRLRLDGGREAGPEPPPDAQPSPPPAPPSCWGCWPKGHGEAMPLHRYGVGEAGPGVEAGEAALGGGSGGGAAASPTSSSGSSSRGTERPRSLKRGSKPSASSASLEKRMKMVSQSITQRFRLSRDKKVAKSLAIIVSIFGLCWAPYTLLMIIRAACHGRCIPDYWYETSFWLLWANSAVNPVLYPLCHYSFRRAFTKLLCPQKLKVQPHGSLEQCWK

Rattus norvegicus [14] = experiment: Toxicity in von Frey hair mechanically stimulated neuropathic pain Sprague-Dawley rat model assessed as respiratory depression at up to 30 mg/kg, sc; type: organism-based; parameters: dose 30 mg/kg, route subcutaneous; details: in vivo
Rattus norvegicus [15] = species: Rattus norvegicus; experiment: Inhibition of rat glycine receptor at 1 uM relative to control
[16] = target: Adenosine receptor A1 (Homo sapiens) (UniProt P30542); experiment: Inhibition of human adenosine A1 receptor at 1 uM relative to control
Chain of Adenosine receptor A1 (Homo sapiens) (P30542 whole entry): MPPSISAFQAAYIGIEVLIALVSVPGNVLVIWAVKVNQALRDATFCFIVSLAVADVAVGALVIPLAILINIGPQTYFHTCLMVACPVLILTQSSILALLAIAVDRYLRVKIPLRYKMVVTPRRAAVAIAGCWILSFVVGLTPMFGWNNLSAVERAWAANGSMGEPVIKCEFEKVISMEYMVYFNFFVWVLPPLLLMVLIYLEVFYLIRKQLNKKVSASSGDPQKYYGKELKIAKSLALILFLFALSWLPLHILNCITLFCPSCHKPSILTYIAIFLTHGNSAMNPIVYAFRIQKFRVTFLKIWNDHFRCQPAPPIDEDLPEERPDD

Rattus norvegicus [17] = species: Rattus norvegicus; experiment: Inhibition of rat thyroid hormone receptor at 1 uM relative to control
Rattus norvegicus [18] = experiment: Antiallodynic activity against von Frey hair mechanically stimulated neuropathic pain in Sprague-Dawley rat assessed as increase of response threshold at 30 mg/kg, sc after 2 hrs relative to control; type: functional; details: route subcutaneous
[19] = target: Cannabinoid receptor 1 (Homo sapiens) (UniProt P21554); experiment: Inhibition of human cannabinoid CB1 receptor at 1 uM relative to control
Chain of Cannabinoid receptor 1 (Homo sapiens) (P21554 whole entry): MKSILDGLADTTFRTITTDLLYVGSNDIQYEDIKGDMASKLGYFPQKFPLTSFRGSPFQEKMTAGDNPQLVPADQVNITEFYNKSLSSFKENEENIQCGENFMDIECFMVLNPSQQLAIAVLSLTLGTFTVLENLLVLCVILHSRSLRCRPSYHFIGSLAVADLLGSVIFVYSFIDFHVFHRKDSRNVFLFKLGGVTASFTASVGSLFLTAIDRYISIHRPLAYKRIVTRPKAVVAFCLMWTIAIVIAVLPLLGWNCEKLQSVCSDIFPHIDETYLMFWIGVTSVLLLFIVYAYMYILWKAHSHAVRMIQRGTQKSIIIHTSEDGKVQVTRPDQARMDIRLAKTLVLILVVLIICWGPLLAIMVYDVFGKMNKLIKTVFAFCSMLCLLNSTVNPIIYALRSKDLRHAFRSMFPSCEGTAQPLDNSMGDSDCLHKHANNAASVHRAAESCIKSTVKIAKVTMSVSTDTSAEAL

[20] = target: Sodium-dependent serotonin transporter (Homo sapiens) (UniProt P31645); experiment: Inhibition of human 5-HT transporter at 1 uM relative to control
Chain of Sodium-dependent serotonin transporter (Homo sapiens) (P31645 whole entry, looked up): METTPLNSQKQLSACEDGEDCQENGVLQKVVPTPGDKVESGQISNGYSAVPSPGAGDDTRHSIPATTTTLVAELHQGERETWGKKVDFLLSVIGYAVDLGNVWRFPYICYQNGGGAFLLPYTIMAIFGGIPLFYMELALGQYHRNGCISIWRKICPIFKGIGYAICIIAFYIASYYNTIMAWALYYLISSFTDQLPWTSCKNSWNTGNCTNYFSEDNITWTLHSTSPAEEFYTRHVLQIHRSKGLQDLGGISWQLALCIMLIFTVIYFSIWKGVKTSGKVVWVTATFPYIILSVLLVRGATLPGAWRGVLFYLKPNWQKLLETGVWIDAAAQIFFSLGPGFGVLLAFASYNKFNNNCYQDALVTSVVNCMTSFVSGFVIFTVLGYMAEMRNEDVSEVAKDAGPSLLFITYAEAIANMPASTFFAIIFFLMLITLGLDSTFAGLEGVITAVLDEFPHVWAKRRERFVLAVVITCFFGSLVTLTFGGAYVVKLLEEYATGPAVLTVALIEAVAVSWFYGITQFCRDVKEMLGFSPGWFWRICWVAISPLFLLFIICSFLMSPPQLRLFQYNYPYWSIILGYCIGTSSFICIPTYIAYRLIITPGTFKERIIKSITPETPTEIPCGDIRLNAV

Rattus norvegicus [21] = experiment: Antiallodynic activity against von Frey hair mechanically stimulated neuropathic pain in Sprague-Dawley rat assessed as effect on allodynia in contralateral paw at 1 to 30 mg/kg, sc after 2 hrs; type: functional, organism-based
Rattus norvegicus [22] = species: Rattus norvegicus; experiment: Inhibition of rat sodium channel site 2 at 1 uM relative to control
Rattus norvegicus [23] = species: Rattus norvegicus; experiment: Inhibition of rat phospholipase C at 1 uM relative to control
Rattus norvegicus [24] = experiment: Antiallodynic activity against von Frey hair mechanically stimulated neuropathic pain in sc dosed Sprague-Dawley rat assessed as increase of response threshold; type: functional, organism-based
[25] = Drug level Sprague-Dawley rat brain at 10 mg/kg, sc after 0.5 hrs; type: ADME, organism-based; parameters: dose 10 mg/kg, route subcutaneous; details: read-out: Drug uptake
Rattus norvegicus [26] = species: Rattus norvegicus; experiment: Inhibition of rat K+V channel at 1 uM relative to control
[27] = target: Adrenergic receptor alpha-2 (Rattus norvegicus) (UniProt P22086+P19328+P22909); experiment: Inhibition of rat alpha2 adrenoceptor at 1 uM relative to control
Rattus norvegicus [28] = experiment: Antiallodynic activity against von Frey hair mechanically stimulated neuropathic pain in intrathecally dosed Sprague-Dawley rat assessed as increase of response threshold per site after 20 mins; type: functional
Rattus norvegicus [29] = experiment: Antiallodynic activity against von Frey hair mechanically stimulated neuropathic pain in Sprague-Dawley rat assessed as increase of response threshold at 30 mg/kg, sc after 30 mins relative to control; type: functional; details: route subcutaneous
[30] = target: Histamine H2 receptor (Cavia porcellus) (UniProt P47747); experiment: Inhibition of guinea pig histamine H2 receptor at 1 uM relative to control
Chain of Histamine H2 receptor (Cavia porcellus) (P47747 whole entry): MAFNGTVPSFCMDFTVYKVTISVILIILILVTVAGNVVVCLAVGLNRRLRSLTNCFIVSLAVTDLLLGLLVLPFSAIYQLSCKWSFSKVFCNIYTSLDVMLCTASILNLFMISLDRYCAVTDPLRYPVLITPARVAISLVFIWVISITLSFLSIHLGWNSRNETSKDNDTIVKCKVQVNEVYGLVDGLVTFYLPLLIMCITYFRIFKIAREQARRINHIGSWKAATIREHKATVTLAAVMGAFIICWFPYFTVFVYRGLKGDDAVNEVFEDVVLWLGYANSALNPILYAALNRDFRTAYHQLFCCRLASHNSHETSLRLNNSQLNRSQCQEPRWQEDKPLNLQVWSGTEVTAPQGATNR

Rattus norvegicus [31] = species: Rattus norvegicus; experiment: Inhibition of rat 5-HT receptor at 1 uM relative to control
Rattus norvegicus [32] = experiment: Antiallodynic activity against von Frey hair mechanically stimulated neuropathic pain in Sprague-Dawley rat assessed as increase of response threshold per site at 170 nmol/site administered intrathecally after 1 hr relative to control; type: functional
[33] = target: L-type calcium channel, verapamil site (Rattus norvegicus, UniProt P22002+P27732+Q02485); experiment: Inhibition of rat L-type calcium channel verapamil site at 1 uM relative to control
Rattus norvegicus [34] = experiment: Antiallodynic activity against von Frey hair mechanically stimulated neuropathic pain in Sprague-Dawley rat assessed as increase of response threshold per site at 55 nmol/site administered intrathecally after 1 hr relative to control; type: functional
[35] = target: D(1A) dopamine receptor (Homo sapiens) (UniProt P21728); experiment: Inhibition of human dopamine D1 receptor at 1 uM relative to control
Rattus norvegicus [36] = experiment: Antiallodynic activity against von Frey hair mechanically stimulated neuropathic pain in Sprague-Dawley rat assessed as increase of response threshold per site at 170 nmol/site administered intrathecally after 20 mins relative to control; type: functional
Rattus norvegicus [37] = experiment: Antiallodynic activity against von Frey hair mechanically stimulated neuropathic pain in sc dosed Sprague-Dawley rat assessed as assessed as minimum effective dose to increase of response threshold after 4 hrs; type: functional, organism-based
Rattus norvegicus [38] = species: Rattus norvegicus; experiment: Inhibition of rat glutamate receptor at 1 uM relative to control
[39] = Drug level Sprague-Dawley rat cerebrospinal fluid at 10 mg/kg, sc after 0.5 hrs; type: ADME, organism-based; parameters: dose 10 mg/kg, route subcutaneous; details: read-out: Drug uptake
[40] = Drug level Sprague-Dawley rat plasma at 10 mg/kg, sc after […]; type: ADME, organism-based; parameters: dose 10 mg/kg, route subcutaneous; details: read-out: Drug uptake
[41] = target: Beta-2 adrenergic receptor (Homo sapiens) (UniProt P07550); experiment: Inhibition of human beta2 adrenoceptor at 1 uM relative to control
Chain of Beta-2 adrenergic receptor (Homo sapiens) (P07550 whole entry, looked up): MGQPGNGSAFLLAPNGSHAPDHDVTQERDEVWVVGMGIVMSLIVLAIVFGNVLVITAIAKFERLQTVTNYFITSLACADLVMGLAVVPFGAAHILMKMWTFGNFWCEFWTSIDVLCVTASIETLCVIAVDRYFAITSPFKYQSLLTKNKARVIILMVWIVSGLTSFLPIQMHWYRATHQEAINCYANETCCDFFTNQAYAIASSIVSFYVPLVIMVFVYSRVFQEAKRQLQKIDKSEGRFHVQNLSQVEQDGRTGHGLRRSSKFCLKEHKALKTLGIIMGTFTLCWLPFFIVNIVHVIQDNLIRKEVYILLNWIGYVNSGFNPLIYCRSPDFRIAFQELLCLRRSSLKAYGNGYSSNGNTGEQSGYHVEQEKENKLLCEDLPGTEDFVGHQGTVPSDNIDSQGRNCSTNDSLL

Rattus norvegicus [42] = experiment: Toxicity in von Frey hair mechanically stimulated neuropathic pain Sprague-Dawley rat model assessed as sedation effect at up to 30 mg/kg, sc; type: organism-based; parameters: dose 30 mg/kg, route subcutaneous; details: in vivo
[43] = Drug level Sprague-Dawley rat plasma at 10 mg/kg, sc after 0.5 hrs; type: ADME, organism-based; parameters: dose 10 mg/kg, route subcutaneous; details: read-out: Drug uptake
[44] = target: Substance-P receptor (Homo sapiens) (UniProt P25103); experiment: Inhibition of human tachykinin NK1 receptor at 1 uM relative to control
Chain of Substance-P receptor (Homo sapiens) (P25103 whole entry): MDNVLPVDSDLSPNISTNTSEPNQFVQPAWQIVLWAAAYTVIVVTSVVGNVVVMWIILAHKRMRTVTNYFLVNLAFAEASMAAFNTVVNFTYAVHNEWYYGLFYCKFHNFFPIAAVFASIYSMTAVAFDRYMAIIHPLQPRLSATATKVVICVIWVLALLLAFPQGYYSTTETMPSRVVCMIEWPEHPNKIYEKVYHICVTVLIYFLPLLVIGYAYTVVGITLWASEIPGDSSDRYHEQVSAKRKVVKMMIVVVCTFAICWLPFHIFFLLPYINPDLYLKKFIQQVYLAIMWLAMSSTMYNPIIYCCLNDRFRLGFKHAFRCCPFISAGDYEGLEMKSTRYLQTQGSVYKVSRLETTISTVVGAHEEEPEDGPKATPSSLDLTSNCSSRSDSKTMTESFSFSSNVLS

## OCC1(N2CCC(n3c(N4CC5CNCC5C4)nc4ccccc43)CC2)CCCCCCC1 (configuration not stated)
[1]
  concentration at […]: 226 ng/mL
Rattus norvegicus [2]
  MED: 30 mg/kg
[3]
  inhibition: < 10%
Monoamine oxidase B
  inhibition at 1 µM: < 10%
Rattus norvegicus [4]
  inhibition: < 10%
[5]
  inhibition: < 10%
[6]
  concentration at […]: 63 ng/mL
[7]
  inhibition: < 10%
[8]
  inhibition: < 10%
Mu-type opioid receptor
  EC50: 3.5 µM
Rattus norvegicus [9]
  Activity: inactive
[10]
  inhibition: 19%
Rattus norvegicus [11]
  inhibition: 24%
Rattus norvegicus [12]
  ED50: 10.8 mg/kg
[13]
  inhibition: < 10%
Rattus norvegicus [14]
  Activity: Non-toxic
Rattus norvegicus [15]
  inhibition: < 10%
[16]
  inhibition: < 10%
Rattus norvegicus [17]
  inhibition: < 10%
Rattus norvegicus [18]
  Activity: 35.8%
[19]
  inhibition: 18%
[20]
  inhibition: < 10%
Rattus norvegicus [21]
  Activity: inactive
Rattus norvegicus [22]
  inhibition: < 10%
Rattus norvegicus [23]
  inhibition: < 10%
Rattus norvegicus [24]
  Activity: Dose-dependent effect
[25]
  concentration at 0.5 h: 152 ng/mL
Rattus norvegicus [26]
  inhibition: < 10%
[27]
  inhibition: < 10%
Rattus norvegicus [28]
  Activity: Dose-dependent effect
  ED50: 80 nmol
Rattus norvegicus [29]
  Activity: 57.6%
[30]
  inhibition: 22%
Rattus norvegicus [31]
  inhibition: < 10%
Rattus norvegicus [32]
  Activity: 45.5%
[33]
  inhibition at 1 µM: < 10%
Rattus norvegicus [34]
  Activity: 31.1%
[35]
  inhibition: < 10%
Rattus norvegicus [36]
  Activity: 59.3%
Rattus norvegicus [37]
  MED: inactive
Rattus norvegicus [38]
  inhibition: < 10%
[39]
  concentration at 0.5 h: 11 ng/mL
[40]
  concentration at […]: 504 ng/mL
[41]
  inhibition: 53%
Rattus norvegicus [42]
  Activity: Non-toxic
[43]
  concentration at 0.5 h: 600 ng/mL
[44]
  inhibition: < 10%
